This note sets out measurements from patent US9481671B2, “Glucosylceramide synthase inhibition for the treatment of collapsing glomerulopathy and other glomerular disease” (Genzyme Corporation, priority 2008, dated 2016).

Each structure is given as a SMILES string.

For this experiment, the system named is GM3. Put plainly: GM3 Elisa Assay (B16-FO cells). The conditions noted are these: 48 h, Table 3, 2 days with compound, read-out: IC50_uM_Mean. It is filed as cell-based. The method, then: B16-FO cells from ATCC (American Tissue Culture Collection) were grown in DMEM media (ATCC) with 10% Fetal Bovine Serum (Hyclone) and Pen/Step/Glutamine (Biowhittaker). 4000 cells per well were plated on collagen coated plates (BD) and allowed to attach for 6 hours in an incubator (37 degrees, 5% CO2). After 6 hours the compounds and controls were added to the wells, the plates mixed and returned to the incubator for 2 days. Day of assay the cells were fixed for 20 minutes with 1% formaldehyde and then washed with Tris Buffered Saline (TBS) 3 times, 150 μl of TBS was left in the wells and 50 μl of goat serum (Invitrogen) was added, the plates mixed and incubated for 1 hour at room temperature. The plates were flicked and the cells incubated with the monoclonal Antibody to GM3 (NeuAc) (Cosmo) for 45 minutes as room temperature. The plates were then washed 3 times with TBS, leaving 150 μl of TBS in the wells and Peroxidase AffinPure F (ab′) 2 frag Gt Anti-mouse IgM, μ Chain Specific (Jackson Immno Research) was added in 50 μl, the plates mixed and incubated for 45 minutes at room temperature. The plates were washed 3 times with TBS, flicked and blotted and 100 μl of Quantablu (Pierce) was added to the wells and incubated for 1 hour then read on a Fluorometer at Ex 325 and Em 420. The data was then analyzed using standard programs.

With `O=C(CCCc1nc(C2CC2)no1)N[C@H](CN1CCCC1)[C@H](O)c1ccc2c(c1)OCCO2` [Compound 648], the IC50 lay within 1 to 3 µM.

In the case of `Cc1noc(CCCCC(=O)N[C@H](CN2CCCC2)[C@H](O)c2ccc3c(c2)OCCO3)n1` [Compound 649], the IC50 fell in the range of 3 to 10 µM.
